Measured values published in patent US20230085307A1, “PYRIDAZINONE COMPOUND AND HERBICIDE” (NISSAN CHEMICAL CORPORATION, priority 2019, published 2023).

Legend:
redroot pigweed = test: Test Example 4: herbicidal effect by soil treatment (Table 19, symbol N); format: in vivo, redroot pigweed (Amaranthus retroflexus); settings: 320 g/ha
In short: (§1)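 Herbicidal effect was rated 3 weeks after treatment, using the scoring criteria of an earlier test. The compound, formulated as an emulsion and diluted in water to a set herbicide amount, had been sprayed uniformly on soil over freshly sown seeds. Growth took place in a greenhouse at 25° C. to 30° C.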

Japanese bulrush [1] = test: Test Example 1: herbicidal activity, application before weed generation under submerged conditions (Table 16, symbol B); format: in vivo, Japanese bulrush (Schoenoplectus juncoides); settings: 320 g/ha applied herbicide
In short: (§2)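 Alluvial soil was flooded to 4 cm depth, weed seeds were sown mixed and 2.5-leaf rice seedlings were transplanted. On sowing day, the compound's emulsion, diluted in water to a set dose, was applied to the water surface. Plants grew at 25–30 °C and were scored 0–5 after three weeks.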

oval-leafed pondweed [2] = test: Test Example 1: herbicidal activity, application before weed generation under submerged conditions (Table 16, symbol C); format: in vivo, oval-leafed pondweed (Monochoria vaginalis); settings: 320 g/ha applied herbicide
In short: as §2

blackgrass [3] = test: Test Example 5: herbicidal effect by foliage application, plastic box (Table 20, symbol J); format: in vivo, blackgrass (Alopecurus myosuroides); settings: foliage application, 320 g/ha, 3 weeks after application
In short: (§3)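 Foliar spray test: emulsion formulation diluted in water to a set application rate, sprayed onto 14-day-old plants raised in diluvial soil at 25° C to 30° C under glass. Both herbicidal effect and crop effect rated visually three weeks later.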

oval-leafed pondweed [4] = test: Test Example 2: herbicidal activity, application during weed generation under submerged conditions (Table 17, symbol C); format: in vivo, oval-leafed pondweed (Monochoria vaginalis); settings: AAH 320 g/ha; application during weed generation, submerged conditions
In short: (§4)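 In this pot test, flooded alluvial soil (water depth 4 cm) holds all three species sown as a mixture. Once seedlings have one to two leaves, the compound's emulsion, thinned with water to the intended dose, is poured on the water; grading follows after three weeks on the earlier criteria.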

persian speedwell [5] = test: Test Example 4: herbicidal effect by soil treatment (Table 19, symbol R); format: in vivo, Persian speedwell (Veronica persica); settings: 320 g/ha
In short: as §1

green foxtail [6] = test: Test Example 4: herbicidal effect by soil treatment (Table 19, symbol G); format: in vivo, green foxtail (Setaria viridis); settings: 320 g/ha
In short: as §1

barnyard grass [7] = test: Test Example 4: herbicidal effect by soil treatment (Table 19, symbol H); format: in vivo, barnyard grass (Echinochloa crus-galli); settings: 320 g/ha
In short: as §1

windgrass = test: Test Example 5: herbicidal effect by foliage application, plastic box (Table 20, symbol L); format: in vivo, windgrass (Apera spica-venti); settings: foliage application, 320 g/ha, 3 weeks after application
In short: as §3

velvetleaf [8] = test: Test Example 4: herbicidal effect by soil treatment (Table 19, symbol M); format: in vivo, velvetleaf (Abutilon theophrasti); settings: 320 g/ha
In short: as §1

barnyard grass [9] = test: Test Example 3: herbicidal effect by foliage application, Wagner pot (Table 18, symbol H); format: in vivo, barnyard grass (Echinochloa crus-galli); settings: 320 g/ha
In short: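 Plants were sown in alluvial soil held under 0.1–0.5 cm standing water and grown 14 days in a greenhouse at 25–30 °C. An emulsifiable formulation, water-diluted to the set dose, was then sprayed onto the foliage, and effects were scored three weeks later using previously defined criteria.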

blackgrass [10] = test: Test Example 4: herbicidal effect by soil treatment (Table 19, symbol J); format: in vivo, blackgrass (Alopecurus myosuroides); settings: 320 g/ha
In short: as §1

Japanese bulrush [11] = test: Test Example 2: herbicidal activity, application during weed generation under submerged conditions (Table 17, symbol B); format: in vivo, Japanese bulrush (Schoenoplectus juncoides); settings: AAH 320 g/ha; application during weed generation, submerged conditions
In short: as §4

green foxtail [12] = test: Test Example 5: herbicidal effect by foliage application, plastic box (Table 20, symbol G); format: in vivo, green foxtail (Setaria viridis); settings: foliage application, 320 g/ha, 3 weeks after application
In short: as §3

southern crabgrass = test: Test Example 5: herbicidal effect by foliage application, plastic box (Table 20, symbol F); format: in vivo, southern crabgrass (Digitaria ciliaris); settings: foliage application, 320 g/ha, 3 weeks after application
In short: as §3

velvetleaf [13] = test: Test Example 5: herbicidal effect by foliage application, plastic box (Table 20, symbol M); format: in vivo, velvetleaf (Abutilon theophrasti); settings: foliage application, 320 g/ha, 3 weeks after application
In short: as §3

persian speedwell [14] = test: Test Example 5: herbicidal effect by foliage application, plastic box (Table 20, symbol R); format: in vivo, Persian speedwell (Veronica persica); settings: foliage application, 320 g/ha, 3 weeks after application
In short: as §3

CCCCCOc1ccc(-c2sc3ccc(F)cc3c2-c2c(OC(=O)CCC)c(C)nn(C)c2=O)cc1 [2-038]
herbicidal effect rating, N: redroot pigweed (redroot pigweed): 3 (Herbicidal rate of 40% or more and less than 70%) | Herbicidal effect on B: Japanese bulrush (grade 0-5) (Japanese bulrush [1]): 0 (Herbicidal rate of 5% or less (almost no effect)) | Herbicidal effect on C: oval-leafed pondweed (grade 0-5) (oval-leafed pondweed [2]): 0 (Herbicidal rate of 5% or less (almost no effect)) | effect on blackgrass (J) (blackgrass [3]): 0 (Herbicidal rate of 5% or less (almost no effect)) | herbicidal effect rating, C: oval-leafed pondweed (oval-leafed pondweed [4]): 0 (Herbicidal rate of 5% or less (almost no effect)) | herbicidal effect rating, R: persian speedwell (persian speedwell [5]): 4 (Herbicidal rate of 70% or more and less than 90%) | herbicidal effect rating, G: green foxtail (green foxtail [6]): 0 (Herbicidal rate of 5% or less (almost no effect)) | herbicidal effect rating, H: barnyard grass (barnyard grass [7]): 0 (Herbicidal rate of 5% or less (almost no effect)) | effect on windgrass (L) (windgrass): 0 (Herbicidal rate of 5% or less (almost no effect)) | herbicidal effect rating, M: velvetleaf (velvetleaf [8]): 0 (Herbicidal rate of 5% or less (almost no effect)) | herbicidal effect on H (barnyard grass), rating 0-5 (barnyard grass [9]): 4 (Herbicidal rate of 70% or more and less than 90%) | herbicidal effect rating, J: blackgrass (blackgrass [10]): 0 (Herbicidal rate of 5% or less (almost no effect)) | herbicidal effect rating, B: Japanese bulrush (Japanese bulrush [11]): 0 (Herbicidal rate of 5% or less (almost no effect)) | effect on green foxtail (G) (green foxtail [12]): 1 (Herbicidal rate of 5% or more and less than 20%) | effect on southern crabgrass (F) (southern crabgrass): 0 (Herbicidal rate of 5% or less (almost no effect)) | effect on velvetleaf (M) (velvetleaf [13]): 4 (Herbicidal rate of 70% or more and less than 90%) | effect on persian speedwell (R) (persian speedwell [14]): 5 (Herbicidal rate of 90% or more (almost completely withered))

Cc1nn(C)c(=O)c(-c2c(-c3ccc(OC4CCCC4)cc3)sc3ccc(F)cc23)c1O [2-039]
herbicidal effect rating, N: redroot pigweed (redroot pigweed): 3 (Herbicidal rate of 40% or more and less than 70%) | Herbicidal effect on B: Japanese bulrush (grade 0-5) (Japanese bulrush [1]): 4 (Herbicidal rate of 70% or more and less than 90%) | Herbicidal effect on C: oval-leafed pondweed (grade 0-5) (oval-leafed pondweed [2]): 5 (Herbicidal rate of 90% or more (almost completely withered)) | effect on blackgrass (J) (blackgrass [3]): 1 (Herbicidal rate of 5% or more and less than 20%) | herbicidal effect rating, C: oval-leafed pondweed (oval-leafed pondweed [4]): 2 (Herbicidal rate of 20% or more and less than 40%) | herbicidal effect rating, R: persian speedwell (persian speedwell [5]): 4 (Herbicidal rate of 70% or more and less than 90%) | herbicidal effect rating, G: green foxtail (green foxtail [6]): 0 (Herbicidal rate of 5% or less (almost no effect)) | herbicidal effect rating, H: barnyard grass (barnyard grass [7]): 0 (Herbicidal rate of 5% or less (almost no effect)) | effect on windgrass (L) (windgrass): 5 (Herbicidal rate of 90% or more (almost completely withered)) | herbicidal effect rating, M: velvetleaf (velvetleaf [8]): 0 (Herbicidal rate of 5% or less (almost no effect)) | herbicidal effect on H (barnyard grass), rating 0-5 (barnyard grass [9]): 5 (Herbicidal rate of 90% or more (almost completely withered)) | herbicidal effect rating, J: blackgrass (blackgrass [10]): 0 (Herbicidal rate of 5% or less (almost no effect)) | herbicidal effect rating, B: Japanese bulrush (Japanese bulrush [11]): 0 (Herbicidal rate of 5% or less (almost no effect)) | effect on green foxtail (G) (green foxtail [12]): 5 (Herbicidal rate of 90% or more (almost completely withered)) | effect on southern crabgrass (F) (southern crabgrass): 4 (Herbicidal rate of 70% or more and less than 90%) | effect on velvetleaf (M) (velvetleaf [13]): 3 (Herbicidal rate of 40% or more and less than 70%) | effect on persian speedwell (R) (persian speedwell [14]): 5 (Herbicidal rate of 90% or more (almost completely withered))
